{
  "source": "patent US8461085B2",
  "about": "“Bioherbicide from Festuca spp” (Cornell Research Foundation, Inc., priority 2005, dated 2013)",
  "key": {"[1]": {"system": "Arabidopsis thaliana seedlings", "test": "Arabidopsis root growth inhibition in growth media", "type": "in vivo", "conditions": "Arabidopsis thaliana; applied to the growth media; mixture of D and L m-tyrosine; read-out: concentration reducing root length of Arabidopsis by 50%"}, "Wheat": {"system": "Wheat", "test": "Weed and crop Petri dish bioassay, radicle length", "type": "in vivo, Triticum aestivum L.", "protocol": "(§1) m-Tyrosine activity was bioassayed using selected weed and crop species. Growth inhibition as measured by radicle elongation was evaluated in dandelion (Taraxacum officinale Weber in […].), large crabgrass (Digitaria sanguinalis (L.) Scop.), velvetleaf (Abutilon theophrasti Medicus), black medic (Medicago lupulina L.), curly cress (Lepidium sativum L.), bamyardgrass (Echinochloa crus-galli.(L.) Beauv.), lettuce (Lactuca sativa L.), purslane (Portulaca oleracea L.), annual bluegrass (Poa annua L.), birdsfoot trefoil (Lotus corniculatus L.), broadleaf plantain (Plantago major L.), mouseear chickweed (Cerastium vulgatum L.), common chickweed (Stellaria media (L.) Vill.), white clover (Trifolium repens L.), wheat (Triticum aestivum L.), tomato (Lycopersicon esculentum var. esculentum P. Mill.), tobacco (Nicotiana tobacum L.), and sorghum sudangrass hybrid (Sorghum bicolor x Sudanese). Weeds were purchased from HerbiSeeds, England, tomato seeds were purchased from Agway (Ithaca N.Y.), and wheat, sudex and tobacco where donated by Pioneer Seeds (Johnson, Iowa). Seeds were sterilized by a water: ethanol mixture (1:1) for one minute and rinsed three times thoroughly in distilled water. […] At the end of the incubation period, radicle length was measured. […]"}, "[2]": {"test": "Dissolution in aqueous solution", "type": "physicochemical"}, "crabgrass seedlings": {"system": "crabgrass seedlings", "test": "Soil bioassay, crabgrass root growth", "type": "in vivo, Digitaria sanguinalis L.", "conditions": "Digitaria sanguinalis, soil media, read-out: concentration reducing root elongation by 50%", "from_the_text": "Large crabgrass was also included in the first two experiments because it is a common weed in turf settings. Prior experiments have shown that m-tyrosine is a potent inhibitor of root growth of large crabgrass and lettuce (Bertin et al., “Laboratory Assessment of the Allelopathic Effects of Fine Leaf Fescues,” J. Chem. Ecol. 29:1919-1937 (2003), which is hereby incorporated by reference in its entirety). Soil and MetroMix, as described as previously, were placed in 9-cm petri dishes, and 15 lettuce or crabgrass seeds were sown on the soil surface. Each experiment was replicated three times and was repeated over time."}, "Birdsfoot trefoil": {"system": "Birdsfoot trefoil", "test": "Weed and crop Petri dish bioassay, radicle length", "type": "in vivo, Lotus corniculatus L.", "protocol": "as §1"}, "Common Chickweed": {"system": "Common Chickweed", "test": "Weed and crop Petri dish bioassay, radicle length", "type": "in vivo, Stellaria media (L.) Vill.", "protocol": "as §1"}, "[3]": {"system": "selected monocot and dicot plants", "test": "General phytotoxicity Petri dish bioassay, weed and crop species taken together", "type": "in vivo", "protocol": "Using the Petri dish bioassay described above, various weed and crop species were tested for their susceptibility to m-tyrosine. Concentrations evaluated were 10, 20, 40, 80, 160, and 320 μM m-tyrosine dissolved in water.\n(§2) m-Tyrosine activity was bioassayed using selected weed and crop species. Growth inhibition as measured by radicle elongation was evaluated in dandelion (Taraxacum officinale Weber in Weggers.), large crabgrass (Digitaria sanguinalis (L.) Scop.), velvetleaf (Abutilon theophrasti Medicus), black medic (Medicago lupulina L.), curly cress (Lepidium sativum L.), bamyardgrass (Echinochloa crus-galli.(L.) Beauv.), lettuce (Lactuca sativa L.), purslane (Portulaca oleracea L.), annual bluegrass (Poa annua L.), birdsfoot trefoil (Lotus corniculatus L.), broadleaf plantain (Plantago major L.), mouseear chickweed (Cerastium vulgatum L.), common chickweed (Stellaria media (L.) Vill.), white clover (Trifolium repens L.), wheat (Triticum aestivum L.), tomato (Lycopersicon esculentum var. esculentum P. Mill.), tobacco (Nicotiana tobacum L.), and sorghum sudangrass hybrid (Sorghum bicolor x Sudanese). Weeds were purchased from HerbiSeeds, England, tomato seeds were purchased from Agway (Ithaca N.Y.), and wheat, sudex and tobacco where donated by Pioneer Seeds (Johnson, Iowa). Seeds were sterilized by a water: ethanol mixture (1:1) for one minute and rinsed three times thoroughly in distilled water. The simple phytotoxicity bioassay utilized consisted of the evaluation of radicle length of ten sterilized seeds of each weed/crop deposited on a filter paper containing the appropriate m-tyrosine test solution in 4.5 cm Petri dishes. The amino acid analog, m-tyrosine was purchased from Sigma and formulated at concentrations of 0, 20, 40, 80, 160 and 320 μM by initially dissolving in aqueous solutions. A 1000 μL aliquot of the appropriate test solution was added to individual Petri dishes lined with Whatman No. 1 filter paper. Control dishes received 1000 μL of water. After seeds were placed on moistened filter paper, Petri dishes were transferred to a controlled environment with a light regime of 45,33 photon m^−2 s^−1 and maintained at an average temperature of 25° C. for 7 days. At the end of the incubation period, radicle length was measured. Treatments were replicated three times, and the experiment for each plant species tested was repeated three times."}, "Broadleaf Plantain": {"system": "Broadleaf Plantain", "test": "Weed and crop Petri dish bioassay, radicle length", "type": "in vivo, Plantago major L.", "protocol": "as §1"}, "Tobacco": {"system": "Tobacco", "test": "Weed and crop Petri dish bioassay, radicle length", "type": "in vivo, Nicotiana tobacum L.", "protocol": "as §2, with “[…].),” for “Weggers.),”, “The amino acid analog, m-tyrosine was purchased from Sigma and formulated at concentrations of 0, 20, 40, 80, 160 and 320 μM by initially dissolving in aqueous solutions.” left out, “m^-2 s^-1” for “m^−2 s^−1”"}, "Arabidopsis": {"system": "Arabidopsis", "test": "Weed and crop Petri dish bioassay, radicle length", "type": "in vivo, Arabidopsis thaliana L."}, "Cress": {"system": "Cress", "test": "Weed and crop Petri dish bioassay, radicle length", "type": "in vivo, Lepidium sativum L.", "protocol": "as §1"}, "[4]": {"system": "fine leaf fescue seedlings cultivar Intrigue", "test": "Autotoxicity Petri dish bioassay with fine leaf fescue seeds", "type": "in vivo, Festuca rubra L. Subsp. Commutata Gaud.", "conditions": "20 μM to 160 μM"}, "Tomato": {"system": "Tomato", "test": "Weed and crop Petri dish bioassay, radicle length", "type": "in vivo, Lycopersicon esculentum var. esculentum P. Mill.", "protocol": "as §2, with “[…].),” for “Weggers.),”, “The amino acid analog, m-tyrosine was purchased from Sigma and formulated at concentrations of 0, 20, 40, 80, 160 and 320 μM by initially dissolving in aqueous solutions.” left out, “m^-2 s^-1” for “m^−2 s^−1”"}, "Lettuce": {"system": "Lettuce", "test": "Weed and crop Petri dish bioassay, radicle length", "type": "in vivo, Lactuca sativa L.", "protocol": "as §1"}},
  "note": "“Also recorded” adds a separate entry of the source. Where two headings read alike, the source gives them in different places.",
  "data": [
    {"smiles": "N[C@@H](Cc1cccc(O)c1)C(=O)O", "note": "[m-tyrosine, 3-hydroxyphenylalanine]", "values": [
      {"measurement": "IC50", "setting": "[1]", "value": 2, "unit": "µM"},
      {"measurement": "I10", "setting": "Wheat", "value": 80, "unit": "µM"},
      {"measurement": "IC50", "setting": "Wheat; Triticum aestivum, read-out: I50", "value": 157, "unit": "µM"},
      {"measurement": "dissolution in an aqueous solution", "setting": "[2]", "value": "easily dissolved"},
      {"measurement": "IC50", "setting": "crabgrass seedlings", "value": 4000, "unit": "µM"},
      {"measurement": "I10", "setting": "Birdsfoot trefoil", "value": 20, "unit": "µM"},
      {"measurement": "IC50", "setting": "Birdsfoot trefoil; Lotus corniculatus, read-out: I50", "value": 42, "unit": "µM"},
      {"measurement": "I10", "setting": "Common Chickweed", "value": 80, "unit": "µM"},
      {"measurement": "I100", "setting": "Common Chickweed", "value": 320, "unit": "µM"},
      {"measurement": "effect on shoot elongation", "setting": "[3]; in vivo", "value": "inhibitory to shoot elongation"},
      {"measurement": "effect on seed germination", "setting": "[3]; numerous seedling indicators", "value": "did not affect seed germination per se"},
      {"measurement": "IC50", "setting": "[3]; range over all plants exposed, read-out: concentration required to observe 50% inhibition of radicle elongation", "value": "10 to 260", "unit": "µM"},
      {"measurement": "IC50", "setting": "[3]; range over other species evaluated (apart from mouseear chickweed), read-out: concentration for 50% inhibition of radicle elongation", "value": "14 to 253", "unit": "µM"},
      {"measurement": "I10", "setting": "Broadleaf Plantain", "value": 30, "unit": "µM"},
      {"measurement": "IC50", "setting": "Broadleaf Plantain; Plantago major, read-out: I50", "value": 72, "unit": "µM"},
      {"measurement": "I10", "setting": "Tobacco", "value": 30, "unit": "µM"},
      {"measurement": "I100", "setting": "Tobacco", "value": 160, "unit": "µM"},
      {"measurement": "IC50", "setting": "Tobacco; Nicotiana tabacum, read-out: I50", "value": 40, "unit": "µM"},
      {"measurement": "I10", "setting": "Arabidopsis", "value": 6, "unit": "µM"},
      {"measurement": "I100", "setting": "Arabidopsis", "value": 50, "unit": "µM"},
      {"measurement": "IC50", "setting": "Arabidopsis; Arabidopsis thaliana, read-out: I50", "value": 15, "unit": "µM"},
      {"measurement": "I10", "setting": "Cress", "value": 15, "unit": "µM"},
      {"measurement": "IC50", "setting": "Cress; Lepidium sativum, read-out: I50", "value": 23, "unit": "µM"},
      {"measurement": "root elongation of fescue seedlings", "setting": "[4]", "value": "not affected; also recorded: No inhibition"},
      {"measurement": "I10", "setting": "Tomato", "value": 35, "unit": "µM"},
      {"measurement": "I100", "setting": "Tomato", "value": 160, "unit": "µM"},
      {"measurement": "IC50", "setting": "Tomato; Solanum lycopersicum, read-out: I50", "value": 75, "unit": "µM"},
      {"measurement": "I10", "setting": "Lettuce", "value": 6, "unit": "µM"},
      {"measurement": "IC50", "setting": "Lettuce; Lactuca sativa, read-out: I50", "value": 20, "unit": "µM"}
    ]}
  ]
}
